These results are taken from paper PMC11393638 (Regulatory toxicology and pharmacology : RTP, 2023).

Marks after values point to notes of the source that are not given here.

Series [1] relates to CYP2C19-expressing TK6 cells. Put plainly: TK and HPRT gene mutation assays in CYP2C19-expressing TK6 cells. It is filed as cell-based, human. The settings on record: 0.1 μg/mL (positive control), 4-h treatment.
In series [2] the test system is hamster V79 cells. The settings on record: without exogenous activation; ref Brambilla et al., 1989; cited from earlier work.
Series [3] relates to TK6 cells. The conditions noted are these: 2% Aroclor-1254-induced rat liver S9; ref Bernacki et al., 2016; cited from earlier work.
For series [4], the system named is TK6 cells. The settings on record: up to 10 mM; 1% rat liver S9; ref Liviac et al., 2011; cited from earlier work.
In series [5] the test system is TK6 cells. Put plainly: In vitro micronucleus assay in TK6 cells. The conditions noted are these: 4-h (2% S9) and 24-h (0.4% S9) treatments.
Series [6] concerns TK6 cells. The experiment in a line: TK and HPRT gene mutation assays in TK6 cells with hamster liver S9. The settings on record: 100 μM; 4-h treatment; TK6 cells with 1% hamster liver S9.

`O=[N+]([O-])c1cc[n+]([O-])c2ccccc12` [4NQO, reference compound]: in series [1], the “HPRT gene MF” value was 34.1^c × 10^−6, the “Relative survival (%)” value was determined as 59.9% and the “TK gene MF” value is recorded as 69.2^c × 10^−6.

With `CN(N=O)C1=Nc2ccc(Cl)cc2C(c2ccccc2)=[N+]([O-])C1` [N-nitroso chlordiazepoxide], in series [2], the HPRT mutations entry is on record as “induce concentration-dependent HPRT mutations”.

Consider `CCN(CC)N=O` [NDEA, N-nitrosodiethylamine, reference compound], for which, in series [3], the “Genotoxic or cytotoxic responses” value is recorded as “failed to biotransform NDEA to produce any genotoxic or cytotoxic responses”. For the same compound, the MN formation result in series [4] was “did not induce MN formation”. The “%MN frequency with hamster liver S9” value in series [5] was “induced MN”. For the same compound, in series [6], the “HPRT gene MF” value is 23.1^c × 10^−6, the “Relative survival (%)” value stood at 66.9% and the “TK gene MF” value was 44.2^c × 10^−6.
